Measurements: article PMC4627231, “Targeting the sugar metabolism of tumors with a first-in-class 6-phosphofructo-2-kinase (PFKFB4) inhibitor” (Oncotarget, 2015)

Key:
[1] = system: 2-[18F]-fluoro-2-deoxyglucose uptake by LLC xenografts; assay: FDG uptake by micro-PET in LLC tumors; assay type: in vivo, C57BL/6 mice; settings: 120 mg/kg by gavage, once, one hour before imaging
Description: (§1) At the end of the experiment, one hour after a single dose of DMSO or 5MPN, animals were euthanized, tumors removed and sections fixed in 10% formaldehyde for immunohistochemistry or snap-frozen in liquid nitrogen for analyses. Subsets of tumor-bearing mice (n=3) were administered a single dose of either DMSO or 5MPN one hour prior to imaging then injected i.p. with 2-[^18F]-fluoro-2-deoxyglucose (FDG, 150μCi, 100 μl) and, 45 min after FDG injection, were anesthetized with 2% isoflurane in oxygen and transferred to a R-4 Rodent Scanner (CTI Concorde Microsystems) micro-positron emission tomograph to capture images as previously described. Regions of interest in the tumors and cerebellum were quantified in quadruplicate and expressed as the mean ± SD of the ratio of tumor:cerebellar FDG uptake. Animal experiments were approved by the University of Louisville Institutional Animal Care and Use Committee.

[2] = system: intratumoral F2,6BP, LLC xenografts; assay: Intratumoral F2,6BP in LLC tumors; assay type: in vivo, C57BL/6 mice; settings: after 10 days of treatment, one hour after dose by gavage
Description: (§2) Cells or tissues were prepared as previously described and F2,6BP content measured using a coupled enzyme reaction following the method of Van Schaftingen et al and normalized to total cellular protein measured by the bicinchoninic acid assay (Thermo Scientific). All data are expressed as the mean ± SD of three experiments. Statistical significance was assessed by the two-sample t test (independent variable).
as §1

[3] = system: normal human bronchial epithelial (NHBE) cells; assay: Viable cell count (trypan blue exclusion); assay type: cell-based; settings: live cells counted at 48 hours
Description: (§3) Viability was determined using trypan blue exclusion as previously described. Cells were incubated in 20% trypan blue (Sigma) for 5 minutes. Cells excluding trypan blue were counted using a standard hemocytometer (Hausser Scientific) to determine total numbers of viable cells. Data are expressed as mean ± SD of three experiments.

HCT116 cells = assay: Viable cell count (trypan blue exclusion); assay type: cell-based, human; settings: HCT116, 48 hours
Description: as §3

H1299 cells = assay: Viable cell count (trypan blue exclusion); assay type: cell-based, human; settings: H1299, 48 hours
Description: as §3

H460 cells = assay: Viable cell count (trypan blue exclusion); assay type: cell-based, human
Description: as §3

H522 cells = assay: Viable cell count (trypan blue exclusion); assay type: cell-based, human; settings: H522, 48 hours
Description: as §3

H441 cells = assay: Viable cell count (trypan blue exclusion); assay type: cell-based, human; settings: H441, 48 hours
Description: as §3

recombinant PFK-1 = assay: PFK-1 kinase activity; assay type: biochemical; settings: 10 μM
ATP in H460 cells = assay: Intracellular ATP measurement; assay type: cell-based, human; settings: 10 μM, 6-72 hours
Description: Cells were lysed and intracellular ATP determined as described previously. All data are expressed as the mean ± SD of three experiments. Statistical significance was assessed by the two-sample t test (independent variable).

[4] = system: H460 human lung adenocarcinoma xenografts; assay: H460 xenograft growth in athymic mice; assay type: in vivo, BALB/c athymic mice; settings: 120 mg/kg daily by gavage
Description: For xenograft studies, LLC or H460 cells collected from exponential growth phase culture were washed and resuspended in PBS. Groups of female C57BL/6 mice were injected with LLC cells (n=10 per group, s.c., 1×10^6 cells) and groups of female BALB/c athymic mice (Charles River) were injected with H460 cells (n=10 per group, s.c, 5 × 10^6 cells). Tumor masses were determined in a blinded fashion with Vernier calipers using the formula: mass (mg) = (width, mm)^2 X (length, mm)/2 as previously described. When tumor masses were 150-200 mg, mice were randomized to daily DMSO or 5MPN (in 30% Captisol, 100 μl, by gavage). Tumor measurements and body weights were followed daily. All data are expressed as the mean ± SD of two experiments. Statistical significance was assessed by the two-sample t test (independent variable).

human recombinant PFKFB4 = human recombinant PFKFB4 (Homo sapiens, UniProt Q16877); assay: In vitro kinase assay with purified recombinant human PFKFB4; assay type: biochemical; settings: Lineweaver-Burk analyses
Description: Figure 1 Compound 5MPN inhibits recombinant PFKFB4 enzyme activity A. Representation of the 5MPN molecule docked in the crystal structure of rat testes PFKFB4. 5MPN is shown in thicker stick representation than the surrounding protein residues. B. Molecular structure of 5MPN (MW, 305.3 Da). In vitro kinase assays using purified recombinant human PFKFB4 were performed as described in the presence or absence of 0.1, 1 or 10 μM 5MPN. Michaelis-Menten C. and Lineweaver-Burk double reciprocal D. plots examining PFKFB4 enzyme activity as a function of F6P concentration (0 - 2000 μmol/L) are shown. E. In vitro kinase assays using purified recombinant human PFKFB3 were performed as described in the presence or absence of 0.1, 1 or 10 μM 5MPN and the Michaelis-Menten plot examining PFKFB3 enzyme activity as a function of F6P concentration (0 - 400 μmol/L) is shown. Data shown are representative of three independent experiments. […] The activity of 5MPN against 97 kinases was examined using a commercially available active-site dependent competition binding assay core service (KINOMEscanEDGE) that quantifies the capacity of test agents to compete with an immobilized, active-site directed ligand using a DNA-tagged kinase and immobilized ligand and compound.

[5] = system: intracellular F2,6BP in H460 cells; assay: F2,6BP measurement in H460 cells; assay type: cell-based, human; settings: for [F2,6BP]: 24 hours (DMSO 6.1 ±0.2)
Description: as §2

Chain of human recombinant PFKFB4 (Q16877 whole entry): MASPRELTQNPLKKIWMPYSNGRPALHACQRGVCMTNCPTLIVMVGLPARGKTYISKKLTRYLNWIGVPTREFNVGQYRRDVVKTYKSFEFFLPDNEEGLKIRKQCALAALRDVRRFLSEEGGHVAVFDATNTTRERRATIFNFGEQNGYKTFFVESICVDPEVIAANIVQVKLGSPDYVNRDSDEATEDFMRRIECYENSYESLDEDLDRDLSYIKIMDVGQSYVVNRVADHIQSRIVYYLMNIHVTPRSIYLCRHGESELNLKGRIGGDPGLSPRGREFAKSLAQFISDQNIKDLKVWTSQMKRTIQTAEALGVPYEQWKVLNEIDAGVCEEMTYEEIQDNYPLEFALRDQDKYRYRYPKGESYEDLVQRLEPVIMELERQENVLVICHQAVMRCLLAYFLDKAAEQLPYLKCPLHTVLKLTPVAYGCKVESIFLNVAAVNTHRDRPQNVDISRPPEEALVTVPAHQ

## COc1cccc2c(NCCCCCO[N+](=O)[O-])ccnc12 [Compound 5MPN, 5-(n-(8-methoxy-4-quinolyl)amino)pentyl nitrate]
[1]
  2-[18F]-fluoro-2-deoxyglucose uptake (positron emission tomography): marked reduction
[2]
  intratumoral F2,6BP: marked reduction
[3]
  effect on cell growth: virtually unaffected
HCT116 cells
  effect on proliferation: dose-dependent reduction in growth
H1299 cells
  effect on proliferation: dose-dependent reduction in growth
H460 cells; H460, 48 hours
  effect on proliferation: dose-dependent reduction in growth
H460 cells; H460 cells transfected with PFKFB4 vs empty vector, 10μM 5MPN, 24 hours
  effect of PFKFB4 over-expression on anti-proliferative effect: protected
H522 cells
  effect on proliferation: dose-dependent reduction in growth
H441 cells
  effect on proliferation: dose-dependent reduction in growth
Recombinant PFK-1
  inhibition of PFK-1 kinase activity: no inhibition of kinase activity
ATP in H460 cells
  effect on ATP: reduced
[4]; H460-bearing BALB/c athymic mice
  body weight: without affecting body weight
[4]; H460 xenografts in BALB/c athymic mice
  tumor growth: suppressed the growth
Human recombinant PFKFB4
  mode of inhibition: competitive inhibitor of the F6P binding site
Human recombinant PFKFB4; F6P as substrate, read-out: Ki for 5MPN inhibition
  Ki: 8.6 ± 1.9 µM
[5]; 5μM 5MPN
  [F2,6BP]: 2.3 ±0.05 pmol/mg protein
[5]; 10μM 5MPN
  [F2,6BP]: 1.52 ±0.2 pmol/mg protein
[5]; 20 μM 5MPN
  [F2,6BP]: 0.75±0.09 pmol/mg protein
[5]; 30 μM 5MPN
  [F2,6BP]: 0.43 ±0.1 pmol/mg protein
[5]; Vec vs FB4, 10 μM 5MPN, 24 hours
  effect of PFKFB4 over-expression on the reduction in F2,6BP caused by 5MPN: reversed
